Results published in patent publication US6251897A, “6-phenyltetrahydro-1,3-oxazin-2-one derivative and pharmaceutical composition containing the same” (Nikken Chemicals Co., LTD, priority 1996, dated 2001).

What was measured:
Type IV PDE = assay: PDE inhibitory activity, type IV isozyme (3H-cAMP hydrolysis); type: biochemical; conditions: partially purified from rat neutrophils, 30° C., 30 minutes
Summary of the method: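 Enzyme partially purified from rat neutrophils by ion-exchange chromatography. Reaction in 50 mM Tris-HCl with 5 mM MgCl2, 30 min at 30° C, stopped by boiling; product converted by 5'-nucleotidase and 3H-adenosine counted after ion-exchange separation. IC50 given in M.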

rat neutrophils = assay: Inhibition of super oxide anion release from rat neutrophils (A23187-stimulated chemiluminescence); type: cell-based, rat (Wister); conditions: Neutrophil, stimulated with 0.3 μM calcium ionophore A23187, read-out: Inhibitory action of super oxide anion release from rat neutrophils IC50
Protocol: The release of super oxide anions was measured so as to study the inhibitory effects of the compound on inflammatory leukocytes, that is, neutrophils.
Blood sample was obtained from Wister rats anesthetized with ether. It was superposed on a blood cell separation solution (Polymorphoprep 1.113, made by Naicomet Co. (phonetic)) and the neutrophils were separated by centrifugation. The neutrophils were resuspended in a Hank's balanced salt solution at a concentration of 0.5×10^4 cell/ml. 0.1 mM of Lusigenin and the test substance dissolved in DMSO were added to 2 ml of the cell-suspension. The chemiluminescence generated by stimulation of 0.3 μM calcium ionophore A23187 was measured by a chemiluminescence reader so as to evaluate the release of super oxide anions.

[1] = test system: antigen-induced bronchospasm in guinea pig; assay: Inhibitory effect on antigen-induced bronchospasm (Konzett-Roessler, ovalbumin-sensitized); type: in vivo, guinea pig (Hartley male); conditions: Cavia porcellus; intravenous, 10 minutes before antigen (0.2 mg/kg OA i.v.); read-out: Action for suppressing antigen-induced bronchospasms ED50
Protocol: A Hartley male guinea pig was sensitized by intramuscular administration of […] Ovalbumin (OA) on first day and fourth day, and used after 24th day. A trachial canula was introduced in the guinea pig anesthetized with pentobarbital and artificial ventilation was performed 25 to 29 days after the first sensitization. The overflow of the ventilation was measured by the Konzett-Roessler method while 0.2 mg/kg OA were administered intravenously. The test compound was dissolved in polyethylene glycol 400 and intravenously administered 10 minutes before administration of the antigens.

## COc1ccc(C2(C)CCNC(=O)O2)cc1OC (stereo not drawn) [Compound No. 5, 6-(3,4-dimethoxyphenyl)-6-methyl-3,4,5,6-tetrahydro-2H-1,3-oxazin-2-one]
Type IV PDE
  IC50: 6.8 µM
Rat neutrophils
  IC50: 2.4 µM
[1]
  ED50: 0.3 mg/kg
